# Source: the supplement of paper PMC10307832
# Compound: CC1=NN=C(O1)C2=NN=C(C=C2)N3CCC(CC3)OC4=C(C=CC(=C4)F)Cl + Cc1nc(Nc2ncc(C(=O)Nc3c(C)cccc3Cl)s2)cc(N2CCN(CCO)CC2)n1 [Dasatinib] (partner 0.075 µM)
# Test: relative viability (nuclei count vs DMSO), 5 days (fraction); higher = more cells survive
# Conditions: first compound 8 µM
# Outline: (§1)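 A single step with final 0.05% Triton X-100, 1% formaldehyde and 1 ug/ml Hoechst fixed the cells and stained nuclei 5 days after treatment. Lung cancer cell lines in 1536-well plates had been treated by pin tool the day after seeding with one drug alone or a fixed anchor-drug dose plus five library-drug doses (not always all listed) in √10 steps, and nuclei were counted on 4× images. Relative viability is the ratio of nuclei in treated wells to nuclei in vehicle wells, taken as the median of duplicate plates.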
row,Cell Line,relative viability
1,HCC-366,0.361
2,NCI-H1755,0.373
3,NCI-H838,0.331
4,LK-2,0.428
5,NCI-H2347,0.277
6,NCI-H2342,0.274
7,SK-MES-1,0.42
8,H3255,0.338
9,COR-L23,0.343
10,COR-L 105,0.489
11,LU99A,0.509
12,ChaGo-K-1,0.352
13,NCI-H2170,0.316
14,NCI-H460,0.193
15,HOP-62,0.6
16,SW 900,0.542
17,LXF-289,0.227
18,BEN,0.24
19,HARA,0.235
20,HCC-78,0.244
21,NCI-H1395,0.427
22,NCI-H1563,0.452
23,NCI-H1793,0.371
24,NCI-H1944,0.264
25,ABC-1,0.361
26,NCI-H358,0.188

# Compound: CC1=NN=C(O1)C2=NN=C(C=C2)N3CCC(CC3)OC4=C(C=CC(=C4)F)Cl + CC(C)C[C@H](NC(=O)[C@H](Cc1ccccc1)NC(=O)c1cnccn1)B(O)O [Bortezomib] (partner 0.002 µM)
# Test: as above
# Conditions: first compound 0.253 µM
# Outline: as §1
row,Cell Line,relative viability
1,SK-LU-1,1.08
2,NCI-H1703,0.304
3,EBC-1,0.479
4,NCI-H1792,0.405
5,NCI-H2087,0.45
6,SW 1573,0.865
7,LCLC-103H,0.69
8,NCI-H727,0.528
9,NCI-H2405,0.468
10,EMC-BAC-2,1.02
11,NCI-H23,0.948
12,Calu-6,0.764
13,HCC-366,0.394
14,NCI-H1755,0.493
15,NCI-H838,0.697
16,NCI-H2347,0.611

row,Cell Line,relative viability
1,H3255,0.465
2,COR-L23,0.737
3,COR-L 105,0.851
4,IA-LM,0.17
5,LU99A,1.01
6,ChaGo-K-1,0.624
7,NCI-H460,0.382
8,HOP-62,0.577
9,HCC-44,0.449
10,LXF-289,0.682
11,BEN,0.726
12,HARA,0.483
13,HCC-78,0.326
14,NCI-H1299,0.935
15,NCI-H1563,0.872
16,ABC-1,0.26

# Same assay, conditions: first compound 0.8 µM
row,Cell Line,relative viability
1,SK-LU-1,0.86
2,NCI-H1703,0.278
3,EBC-1,0.476
4,NCI-H1792,0.423
5,NCI-H2087,0.437
6,NCI-H596,0.85
7,SW 1573,0.834
8,LCLC-103H,0.829
9,NCI-H727,0.702
10,NCI-H2405,0.415
11,EMC-BAC-2,0.964
12,Calu-6,0.807
13,HCC-366,0.438
14,NCI-H1755,0.625
15,NCI-H838,0.592
16,NCI-H2347,0.8

row,Cell Line,relative viability
1,H3255,0.569
2,COR-L23,0.754
3,COR-L 105,0.78
4,IA-LM,0.137
5,LU99A,1
6,ChaGo-K-1,0.617
7,NCI-H460,0.358
8,HCC-44,0.43
9,LXF-289,0.674
10,BEN,0.771
11,HARA,0.335
12,HCC-78,0.403
13,NCI-H1299,0.911
14,NCI-H1563,0.829
15,ABC-1,0.314

# Same assay, conditions: first compound 2.53 µM
row,Cell Line,relative viability
1,SK-LU-1,1.12
2,NCI-H1703,0.222
3,EBC-1,0.444
4,NCI-H1792,0.401
5,NCI-H2087,0.489
6,NCI-H596,1.01
7,NCI-H1355,1.1
8,SW 1573,1.01
9,LCLC-103H,0.744
10,NCI-H727,1
11,NCI-H2405,0.47
12,EMC-BAC-2,1.02
13,NCI-H23,0.894
14,Calu-6,0.832
15,HCC-366,0.436
16,NCI-H1755,0.73
17,NCI-H838,0.553

row,Cell Line,relative viability
1,NCI-H2347,0.898
2,H3255,0.478
3,COR-L23,0.836
4,COR-L 105,0.983
5,IA-LM,0.132
6,LU99A,1.06
7,ChaGo-K-1,0.794
8,NCI-H460,0.342
9,HOP-62,0.764
10,HCC-44,0.398
11,LXF-289,0.753
12,BEN,0.932
13,HARA,0.353
14,HCC-78,0.393
15,NCI-H1299,0.858
16,NCI-H1563,0.823
17,ABC-1,0.237

# Same assay, conditions: first compound 8 µM
row,Cell Line,relative viability
1,SK-LU-1,1.02
2,NCI-H1703,0.218
3,EBC-1,0.412
4,NCI-H1792,0.494
5,NCI-H2087,0.512
6,NCI-H596,0.713
7,NCI-H1355,0.945
8,SW 1573,1.15
9,LCLC-103H,0.675
10,NCI-H727,0.696
11,NCI-H2405,0.453
12,EMC-BAC-2,0.95
13,NCI-H23,0.838
14,Calu-6,0.804
15,HCC-366,0.395
16,NCI-H1755,0.628
17,NCI-H838,0.645

row,Cell Line,relative viability
1,NCI-H2347,0.799
2,H3255,0.526
3,COR-L23,0.68
4,COR-L 105,1.18
5,IA-LM,0.186
6,LU99A,0.953
7,ChaGo-K-1,0.605
8,NCI-H460,0.315
9,HOP-62,0.419
10,HCC-44,0.431
11,LXF-289,0.619
12,BEN,0.719
13,HARA,0.293
14,HCC-78,0.363
15,NCI-H1299,0.807
16,NCI-H1563,0.934
17,ABC-1,0.267
